Source: patent US20250154170A1, “FUSED PYRIMIDINES AS KRAS INHIBITORS” (priority 2022, published 2025)

Legend:
K-Ras G12D = K-Ras G12D (Homo sapiens, UniProt P01116, G12D); assay: K-Ras G12D activation by SOS1 (KRAS G12D activation by SOS1cat assay, HTRF); type: biochemical; conditions: mean, SOS1cat mediated loading of GST-KRAS G12D-GDP with fluorescent GTP analogue, read-out: K-Ras G12D activation by SOS1 IC50 - [mol/l] (mean)
Method: (§1) Preparation of test compound dilutions. A 100-fold concentrated solution of the test compound (50 nL) in DMSO was transferred to microtiter test plates (384 or 1,536 wells, Greiner Bio-One, Germany) using either a Hummingbird liquid handler (Digilab, MA, USA) or an Echo acoustic system (Labcyte, CA, USA). Plates were sealed with adhesive foil or heat-sealed and stored at −20 C until use. Serial dilutions of test compounds were prepared in 100% DMSO using a Precision Pipetting System (BioTek, USA).
(§2) Measurement and evaluation of inhibition data, calculation of IC50 values. Homogeneous time-resolved fluorescence (HTRF) was measured with a PHERAstar reader (BMG, Germany) using the HTRF module (excitation: 337 nm; emission 1: 620 nm, emission 2: 665 nm). The ratio of the emissions at 665 and 620 nm was used as the specific signal for further evaluation. The data were normalized using the controls: DMSO=0% inhibition, inhibition control wells with inhibitor control solution=100% inhibition. Compounds were tested in duplicates at up to 11 concentrations (e.g. 20 μM, 5.7 μM, 1.6 μM, 0.47 μM, 0.13 μM, 38 nM, 11 nM, 3.1 nM, 0.89 nM, 0.25 nM and 0.073 nM). IC50 values were calculated using a four-parameter fit, with a commercial software package (Genedata Screener, Switzerland).
(§3) KRAS^G12C activation by SOS1^cat assay (“On-assay”). This assay quantifies SOS1^cat mediated loading of KRAS^G12C-GDP with a fluorescent GTP analogue. Detection of successful loading was achieved by measuring resonance energy transfer from anti-GST-terbium (FRET donor) bound to GST-KRAS^G12C to the loaded fluorescent GTP analogue (FRET acceptor). The fluorescent GTP analogue EDA-GTP-DY-647P1 [2′/3′-O-(2-aminoethyl-carbamoyl)guanosine-5′-triphosphate labelled with DY-647P1 (Dyomics GmbH, Germany)] was synthesized by Jena Bioscience (Germany) and supplied as a 1 mM aqueous solution. A KRAS^G12C working solution was prepared in assay buffer [10 mM HEPES pH 7.4 (AppliChem), 150 mM NaCl (Sigma), 5 mM MgCl2 (Sigma), 1 mM DTT (Thermo Fisher), 0.05% BSA Fraction V pH 7.0 (ICN Biomedicals), 0.0025% (v/v) Igepal (Sigma)] containing GST-KRAS^G12C (final concentration in assay 50 nM) and anti-GST-terbium (Cisbio, France) (final concentration in assay 1 nM). A SOS1^cat working solution was prepared in assay buffer containing SOS1^cat (final concentration 10 nM) and EDA-GTP-DY-647P1 (final concentration 100 nM). An inhibitor control solution was prepared in assay buffer containing EDA-GTP-DY-647P1 (final concentration 100 nM) without SOS1^cat. All steps of the assay were performed at 20° C. A volume of 3 μL of the KRAS^G12C working solution was added to all wells of the test plate using a Multidrop dispenser (Thermo LabSystems). After 15 min, 2 μL of the SOS1^ct working solution was added to all wells, except for the inhibitor control solution wells. After 30 min incubation, HTRF was measured.
(§4) G12D and Wild-type KRAS activation by SOS1cat assays. These assays quantify human SOS1^cat mediated loading of wild-type GST-KRAS^WT-GDP or GST-KRAS^G12D-GDP with a fluorescent GTP analogue. The assay was performed similarly to the KRAS^G12C activation by SOS1^cat assay with the following differences: final concentration of SOS1^cat of 60 nM and final incubation time before measurement of 10 min for KRAS^G12D assay, final concentration of SOS1^cat of 20 nM and final incubation time before measurement of 15 min for wild-type KRAS assay, respectively. GST-KRAS^G12C was replaced by GST-KRAS^WT or GST-KRAS^G12D, respectively, also at 50 nM final concentration.
KRAS^G12D activation by SOS1^cat assay (“On-assay”). This assay quantifies SOS1^cat mediated loading of KRAS^G12D-GDP with a fluorescent GTP analogue. Detection of successful loading was achieved by measuring resonance energy transfer from anti-GST-terbium (FRET donor) bound to GST-KRAS^G12D to the loaded fluorescent GTP analogue (FRET acceptor).

K-Ras-wildtype = K-Ras-wildtype (Homo sapiens, UniProt P01116); assay: K-Ras-wildtype activation by SOS1 (wild-type KRAS activation by SOS1cat assay, HTRF); type: biochemical; conditions: mean, SOS1cat mediated loading of wild-type GST-KRAS-GDP with fluorescent GTP analogue, read-out: K-Ras-wildtype activation by SOS1 IC50 - [mol/l] (mean)
Chain of K-Ras-wildtype (P01116 1-188 isoform P01116-2): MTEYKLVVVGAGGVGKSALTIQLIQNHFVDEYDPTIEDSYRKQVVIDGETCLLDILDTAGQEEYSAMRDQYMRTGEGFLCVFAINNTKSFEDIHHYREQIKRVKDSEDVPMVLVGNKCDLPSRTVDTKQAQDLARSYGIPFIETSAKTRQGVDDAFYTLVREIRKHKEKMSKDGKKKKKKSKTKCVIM
Method: as §1, §2, §3, §4
Wild-type KRAS activation by SOS1^cat assay. This assay quantifies human SOS1^cat mediated loading of wild-type GST-KRAS-GDP with a fluorescent GTP analogue. The assay was performed similarly to the KRAS^G12D activation by SOS1^cat assay just by replacement of GST-KRAS^G12D by wild-type GST-KRAS while concentrations of all components and incubation times were the same.

Chain of K-Ras G12D (P01116 1-188 isoform P01116-2 G12D): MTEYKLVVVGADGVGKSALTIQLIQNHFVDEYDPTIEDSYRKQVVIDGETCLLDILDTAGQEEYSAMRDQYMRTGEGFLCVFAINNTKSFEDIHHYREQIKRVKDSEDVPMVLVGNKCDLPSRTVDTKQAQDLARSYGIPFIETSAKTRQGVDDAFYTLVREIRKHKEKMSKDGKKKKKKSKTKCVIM

Row | Structure (SMILES) | IC50 (K-Ras G12D) [µM] | IC50 (K-Ras-wildtype) [µM]
1 | Cn1c(Oc2cc(O)cc3cccc(F)c23)nc2c(N3CC4CCC(C3)N4)nc(OCC34CCCN3CCC4)nc21 [Example 8, 4-({6-(3,8-diazabicyclo[3.2.1]octan-3-yl)-9-methyl-2-[(tetrahydro-1H-pyrrolizin-7a(5H)-yl)methoxy]-9H-purin-8-yl}oxy)-5-fluoronaphthalen-2-ol] | > 20 | > 20
2 | Cn1c(Oc2cc(O)cc3ccccc23)nc2c(N3CC4CCC(C3)N4)nc(OCC34CCCN3CCC4)nc21 [Example 9, 4-({6-(3,8-diazabicyclo[3.2.1]octan-3-yl)-9-methyl-2-[(tetrahydro-1H-pyrrolizin-7a(5H)-yl)methoxy]-9H-purin-8-yl}oxy)naphthalen-2-ol] | > 20 | > 20
3 | Oc1cc(Oc2nc3c(N4CC5CCC(C4)N5)nc(OCC45CCCN4CCC5)nc3[nH]2)c2ccccc2c1 [Example 10, 4-({6-(3,8-diazabicyclo[3.2.1]octan-3-yl)-2-[(tetrahydro-1H-pyrrolizin-7a(5H)-yl)methoxy]-9H-purin-8-yl}oxy)naphthalen-2-ol] | > 20 | > 20
4 | Oc1cc(Oc2nc3c(N4CC5CCC(C4)N5)nc(OCC45CCCN4CCC5)nc3[nH]2)c2c(F)cccc2c1 [Example 11, 4-({6-(3,8-diazabicyclo[3.2.1]octan-3-yl)-2-[(tetrahydro-1H-pyrrolizin-7a(5H)-yl)methoxy]-9H-purin-8-yl}oxy)-5-fluoronaphthalen-2-ol] | > 20 | > 20
5 | C#Cc1c(F)ccc2cc(O)cc(Oc3nc4c(N5CC6COCC(C5)N6)nc(OC[C@@]56CCCN5C[C@H](F)C6)nc4s3)c12 [Example 12, 5-ethynyl-6-fluoro-4-{[5-{[(2R,7aS)-2-fluorotetrahydro-1H-pyrrolizin-7a(5H)-yl]methoxy}-7-(3-oxa-7,9-diazabicyclo[3.3.1]nonan-7-yl)[1,3]thiazolo[5,4-d]pyrimidin-2-yl]oxy}naphthalen-2-ol] | 0.0237 | 0.0158
6 | C#Cc1c(F)ccc2cc(O)cc(Oc3nc4c(N5CC6COCC(C5)N6)nc(OCC56CCCN5CCC6)nc4s3)c12 [Example 13, 5-ethynyl-6-fluoro-4-({7-(3-oxa-7,9-diazabicyclo[3.3.1]nonan-7-yl)-5-[(tetrahydro-1H-pyrrolizin-7a(5H)-yl)methoxy][1,3]thiazolo[5,4-d]pyrimidin-2-yl}oxy)naphthalen-2-ol] | 0.0256 | 0.0153
7 | Oc1cc(Cc2nc3c(N4CC5CCC(C4)N5)nc(OCC45CCCN4CCC5)nc3s2)c2c(F)cccc2c1 [Example 14, 4-({7-(3,8-diazabicyclo[3.2.1]octan-3-yl)-5-[(tetrahydro-1H-pyrrolizin-7a(5H)-yl)methoxy][1,3]thiazolo[5,4-d]pyrimidin-2-yl}methyl)-5-fluoronaphthalen-2-ol] | 0.635 | > 20
8 | Oc1cc(Oc2nc3c(N4CC5CCC(C4)N5)nc(OCC45CCCN4CCC5)nc3s2)c2c(Cl)cccc2c1 [Example 15, Formic acid-5-Chlor-4-{[7-(3,8-diazabicyclo[3.2.1]octan-3-yl)-5-(tetrahydro-1H-pyrrolizin-7a(5H)-ylmethoxy)[1,3]thiazolo[5,4-d]pyrimidin-2-yl]oxy}-2-naphthol (2:1)] | 0.0353 | 1.07
9 | C=Cc1c(F)ccc2cc(O)cc(Oc3nc4c(N5CC6CCC(C5)N6)nc(OC[C@@]56CCCN5C[C@H](F)C6)nc4s3)c12 [Example 17, 4-{[7-(3,8-diazabicyclo[3.2.1]octan-3-yl)-5-{[(2R,7aS)-2-fluorotetrahydro-1H-pyrrolizin-7a(5H)-yl]methoxy}[1,3]thiazolo[5,4-d]pyrimidin-2-yl]oxy}-5-ethenyl-6-fluoronaphthalen-2-ol] | 0.0134 | 0.425
10 | Cn1c(Oc2cc(O)cc3ccccc23)nc2nc(OCC34CCCN3CCC4)nc(N3CC4CCC(C3)N4)c21 [Example 18, 4-({6-(3,8-diazabicyclo[3.2.1]octan-3-yl)-7-methyl-2-[(tetrahydro-1H-pyrrolizin-7a(5H)-yl)methoxy]-7H-purin-8-yl}oxy)naphthalen-2-ol] | 15.3 | > 20
11 | C#Cc1c(F)ccc2cc(O)cc(Oc3nc4c(N5CC6COCC(C5)N6)nc(OC[C@@]56CCCN5C[C@H](F)C6)nc4s3)c12 [Example 19, 5-ethynyl-6-fluoro-4-{[5-{[(2R,7aS)-2-fluorotetrahydro-1H-pyrrolizin-7a(5H)-yl]methoxy}-7-(3-oxa-7,9-diazabicyclo[3.3.1]nonan-7-yl)[1,3]thiazolo[5,4-d]pyrimidin-2-yl]oxy}naphthalen-2-ol] | 0.0143 | 0.0107
12 | C#Cc1c(F)ccc2cc(O)cc(Oc3nc4nc(OCC56CCCN5CCC6)nc(N5CC6CCC(C5)N6)c4n3C)c12 [Example 22, 4-({6-(3,8-diazabicyclo[3.2.1]octan-3-yl)-7-methyl-2-[(tetrahydro-1H-pyrrolizin-7a(5H)-yl)methoxy]-7H-purin-8-yl}oxy)-5-ethynyl-6-fluoronaphthalen-2-ol] | 0.0895 | > 20
13 | C#Cc1c(Cl)ccc2cc(O)cc(Oc3nc4c(N5CC6CCC(C5)N6)nc(OC[C@@]56CCCN5C[C@H](F)C6)nc4s3)c12 [Example 23, 6-chloro-4-{[7-(3,8-diazabicyclo[3.2.1]octan-3-yl)-5-{[(2R,7aS)-2-fluorotetrahydro-1H-pyrrolizin-7a(5H)-yl]methoxy}[1,3]thiazolo[5,4-d]pyrimidin-2-yl]oxy}-5-ethynylnaphthalen-2-ol] | 0.0049 | 0.095
14 | Oc1cc(Nc2nc3c(N4CC5CCC(C4)N5)nc(OC[C@@]45CCCN4C[C@H](F)C5)nc3s2)c2ccccc2c1 [Example 28, 4-{[7-(3,8-diazabicyclo[3.2.1]octan-3-yl)-5-{[(2R,7aS)-2-fluorotetrahydro-1H-pyrrolizin-7a(5H)-yl]methoxy}[1,3]thiazolo[5,4-d]pyrimidin-2-yl]amino}naphthalen-2-ol] | 1.41 | > 20
15 | CN(c1nc2c(N3CC4CCC(C3)N4)nc(OC[C@@]34CCCN3C[C@H](F)C4)nc2s1)c1cc(O)cc2ccccc12 [Example 29, 4-{[7-(3,8-diazabicyclo[3.2.1]octan-3-yl)-5-{[(2R,7aS)-2-fluorotetrahydro-1H-pyrrolizin-7a(5H)-yl]methoxy}[1,3]thiazolo[5,4-d]pyrimidin-2-yl](methyl)amino}naphthalen-2-ol] | 0.284 | 11.9
16 | Oc1cc(Nc2nc3c(N4CC5COCC(C4)N5)nc(OC[C@@]45CCCN4C[C@H](F)C5)nc3s2)c2ccccc2c1 [Example 30, 4-{[5-{[(2R,7aS)-2-fluorotetrahydro-1H-pyrrolizin-7a(5H)-yl]methoxy}-7-(3-oxa-7,9-diazabicyclo[3.3.1]nonan-7-yl) [1,3]thiazolo[5,4-d]pyrimidin-2-yl]amino}-2-naphthol] | 10.6 | 7.61
